Measurements: patent publication US9346798B2, “Dihydrobenzoxazine and tetrahydroquinoxaline sodium channel inhibitors” (AMGEN INC., priority 2012, dated 2016)

How the values were obtained:
Assay type in all cases: cell-based
Nav 1.7 [1] = target: T1, Nav 1.7 (Homo sapiens (Human), UniProt Q15858); assay: Nav 1.7 in vitro PX assay, PatchXpress whole cell voltage clamp; conditions: HEK 293 cells stably transfected with human Nav1.7; for IC50: partially inactivated state (20 to 50% inactivation); for inhibition at 4.9 µM: HEK293, values marked *, read-out: Nav 1.7 PX percent inhibition at 4.9 μM
T1 sequence (Q15858 whole entry): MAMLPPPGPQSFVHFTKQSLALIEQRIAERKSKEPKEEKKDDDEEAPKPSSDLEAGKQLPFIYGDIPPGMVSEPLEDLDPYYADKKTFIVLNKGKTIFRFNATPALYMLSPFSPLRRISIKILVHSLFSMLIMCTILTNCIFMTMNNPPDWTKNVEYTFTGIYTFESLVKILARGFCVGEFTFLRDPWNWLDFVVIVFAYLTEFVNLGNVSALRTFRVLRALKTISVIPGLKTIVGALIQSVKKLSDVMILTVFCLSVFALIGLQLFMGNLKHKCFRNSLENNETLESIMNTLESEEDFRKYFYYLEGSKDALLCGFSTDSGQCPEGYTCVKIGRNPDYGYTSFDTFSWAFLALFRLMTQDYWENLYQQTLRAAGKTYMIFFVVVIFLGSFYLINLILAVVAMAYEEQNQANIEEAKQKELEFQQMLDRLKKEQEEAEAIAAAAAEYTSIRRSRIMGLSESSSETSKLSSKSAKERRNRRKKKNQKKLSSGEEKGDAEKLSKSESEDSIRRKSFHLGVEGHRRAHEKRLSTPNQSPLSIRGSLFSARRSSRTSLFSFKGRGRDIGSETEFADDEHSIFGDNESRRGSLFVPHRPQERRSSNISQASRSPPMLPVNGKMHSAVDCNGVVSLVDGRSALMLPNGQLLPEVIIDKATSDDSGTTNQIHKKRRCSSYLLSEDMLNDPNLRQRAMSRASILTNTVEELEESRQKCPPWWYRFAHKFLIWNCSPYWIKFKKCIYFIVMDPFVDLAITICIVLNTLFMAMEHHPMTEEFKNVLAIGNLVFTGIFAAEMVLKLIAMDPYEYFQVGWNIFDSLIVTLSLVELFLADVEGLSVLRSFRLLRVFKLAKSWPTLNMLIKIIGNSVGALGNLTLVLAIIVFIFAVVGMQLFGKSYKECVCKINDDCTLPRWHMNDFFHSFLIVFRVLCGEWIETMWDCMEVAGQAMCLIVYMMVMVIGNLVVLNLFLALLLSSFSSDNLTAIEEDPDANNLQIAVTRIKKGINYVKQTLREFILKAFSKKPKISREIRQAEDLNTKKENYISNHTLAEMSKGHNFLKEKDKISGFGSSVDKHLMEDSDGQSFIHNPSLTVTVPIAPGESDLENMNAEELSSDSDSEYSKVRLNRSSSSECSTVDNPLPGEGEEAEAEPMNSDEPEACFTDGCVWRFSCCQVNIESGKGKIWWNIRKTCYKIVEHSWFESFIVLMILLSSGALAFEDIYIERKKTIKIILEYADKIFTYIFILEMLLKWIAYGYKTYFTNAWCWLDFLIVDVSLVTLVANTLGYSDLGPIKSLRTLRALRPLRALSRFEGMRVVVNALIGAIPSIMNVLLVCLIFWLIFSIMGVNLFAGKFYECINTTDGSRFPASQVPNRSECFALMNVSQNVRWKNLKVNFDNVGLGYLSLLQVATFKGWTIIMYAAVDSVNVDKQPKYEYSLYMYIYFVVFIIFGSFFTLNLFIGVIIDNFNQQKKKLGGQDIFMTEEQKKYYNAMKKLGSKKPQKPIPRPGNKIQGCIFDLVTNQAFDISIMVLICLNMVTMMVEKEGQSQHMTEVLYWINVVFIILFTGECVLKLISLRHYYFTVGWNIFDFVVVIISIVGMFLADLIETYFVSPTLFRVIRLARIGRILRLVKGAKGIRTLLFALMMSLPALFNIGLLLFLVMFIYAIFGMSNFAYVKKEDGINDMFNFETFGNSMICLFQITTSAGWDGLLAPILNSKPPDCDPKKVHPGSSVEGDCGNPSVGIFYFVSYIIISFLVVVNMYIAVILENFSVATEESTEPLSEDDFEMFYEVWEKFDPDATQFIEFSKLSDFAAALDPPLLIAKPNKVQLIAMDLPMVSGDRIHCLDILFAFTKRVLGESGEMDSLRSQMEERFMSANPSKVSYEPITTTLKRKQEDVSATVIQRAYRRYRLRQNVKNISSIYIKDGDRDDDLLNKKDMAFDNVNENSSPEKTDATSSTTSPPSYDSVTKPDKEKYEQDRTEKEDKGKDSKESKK
Outline: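 HEK293 cells stably expressing human Nav1.7, whole-cell voltage clamp at a holding potential giving 20–50% inactivation; currents elicited by 20 msec pulses to −10 mV at 0.1 Hz.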

Nav 1.7 [2] = target: T1, Nav 1.7; assay: Nav 1.7 in vitro assay, IonWorks Quattro (IWQ) population patch-clamp; conditions: HEK 293 cells stably transfected with Nav 1.7; 26th pulse to -20 mV
Method: (§1) Nav 1.7 and Nav 1.5 In Vitro Assays
(§2) HEK 293 cells stably transfected with either Nav 1.7 or with Nav 1.5 were recorded in population patch-clamp mode with the IonWorks® Quattro automated electrophysiology system in accordance with the manufacturer's specifications (Molecular Devices, LLC, Sunnyvale, Calif.). Sodium channel currents were measured in response to a train of depolarizations that induced successively greater inactivation.
(§3) Cells were held at −110 mV for three seconds (Nav 1.7) or half a second (Nav 1.5) from a holding voltage of −15 mV, then put through a series of 26 pulses of 150 msec duration to −20 mV at a frequency of 5 Hz. Cells were then left unclamped for a period of 3 to 8 minutes while a single concentration of test compound was added. Cells were then reclamped and put through the same voltage protocol. Current at the end of the 26th pulse to −20 mV was subtracted from the peak current evoked by the 26th pulse to −20 mV to correct for leak current. Percent block was calculated for each concentration in duplicate, and IC50 curves were fitted to percent block as a function of concentration.

Nav 1.5 = Nav 1.5 (Homo sapiens (Human), UniProt Q14524); assay: Nav 1.5 in vitro assay, IonWorks Quattro (IWQ) population patch-clamp; conditions: HEK 293 cells stably transfected with Nav 1.5; 26th pulse to -20 mV
Chain of Nav 1.5 (Q14524 whole entry): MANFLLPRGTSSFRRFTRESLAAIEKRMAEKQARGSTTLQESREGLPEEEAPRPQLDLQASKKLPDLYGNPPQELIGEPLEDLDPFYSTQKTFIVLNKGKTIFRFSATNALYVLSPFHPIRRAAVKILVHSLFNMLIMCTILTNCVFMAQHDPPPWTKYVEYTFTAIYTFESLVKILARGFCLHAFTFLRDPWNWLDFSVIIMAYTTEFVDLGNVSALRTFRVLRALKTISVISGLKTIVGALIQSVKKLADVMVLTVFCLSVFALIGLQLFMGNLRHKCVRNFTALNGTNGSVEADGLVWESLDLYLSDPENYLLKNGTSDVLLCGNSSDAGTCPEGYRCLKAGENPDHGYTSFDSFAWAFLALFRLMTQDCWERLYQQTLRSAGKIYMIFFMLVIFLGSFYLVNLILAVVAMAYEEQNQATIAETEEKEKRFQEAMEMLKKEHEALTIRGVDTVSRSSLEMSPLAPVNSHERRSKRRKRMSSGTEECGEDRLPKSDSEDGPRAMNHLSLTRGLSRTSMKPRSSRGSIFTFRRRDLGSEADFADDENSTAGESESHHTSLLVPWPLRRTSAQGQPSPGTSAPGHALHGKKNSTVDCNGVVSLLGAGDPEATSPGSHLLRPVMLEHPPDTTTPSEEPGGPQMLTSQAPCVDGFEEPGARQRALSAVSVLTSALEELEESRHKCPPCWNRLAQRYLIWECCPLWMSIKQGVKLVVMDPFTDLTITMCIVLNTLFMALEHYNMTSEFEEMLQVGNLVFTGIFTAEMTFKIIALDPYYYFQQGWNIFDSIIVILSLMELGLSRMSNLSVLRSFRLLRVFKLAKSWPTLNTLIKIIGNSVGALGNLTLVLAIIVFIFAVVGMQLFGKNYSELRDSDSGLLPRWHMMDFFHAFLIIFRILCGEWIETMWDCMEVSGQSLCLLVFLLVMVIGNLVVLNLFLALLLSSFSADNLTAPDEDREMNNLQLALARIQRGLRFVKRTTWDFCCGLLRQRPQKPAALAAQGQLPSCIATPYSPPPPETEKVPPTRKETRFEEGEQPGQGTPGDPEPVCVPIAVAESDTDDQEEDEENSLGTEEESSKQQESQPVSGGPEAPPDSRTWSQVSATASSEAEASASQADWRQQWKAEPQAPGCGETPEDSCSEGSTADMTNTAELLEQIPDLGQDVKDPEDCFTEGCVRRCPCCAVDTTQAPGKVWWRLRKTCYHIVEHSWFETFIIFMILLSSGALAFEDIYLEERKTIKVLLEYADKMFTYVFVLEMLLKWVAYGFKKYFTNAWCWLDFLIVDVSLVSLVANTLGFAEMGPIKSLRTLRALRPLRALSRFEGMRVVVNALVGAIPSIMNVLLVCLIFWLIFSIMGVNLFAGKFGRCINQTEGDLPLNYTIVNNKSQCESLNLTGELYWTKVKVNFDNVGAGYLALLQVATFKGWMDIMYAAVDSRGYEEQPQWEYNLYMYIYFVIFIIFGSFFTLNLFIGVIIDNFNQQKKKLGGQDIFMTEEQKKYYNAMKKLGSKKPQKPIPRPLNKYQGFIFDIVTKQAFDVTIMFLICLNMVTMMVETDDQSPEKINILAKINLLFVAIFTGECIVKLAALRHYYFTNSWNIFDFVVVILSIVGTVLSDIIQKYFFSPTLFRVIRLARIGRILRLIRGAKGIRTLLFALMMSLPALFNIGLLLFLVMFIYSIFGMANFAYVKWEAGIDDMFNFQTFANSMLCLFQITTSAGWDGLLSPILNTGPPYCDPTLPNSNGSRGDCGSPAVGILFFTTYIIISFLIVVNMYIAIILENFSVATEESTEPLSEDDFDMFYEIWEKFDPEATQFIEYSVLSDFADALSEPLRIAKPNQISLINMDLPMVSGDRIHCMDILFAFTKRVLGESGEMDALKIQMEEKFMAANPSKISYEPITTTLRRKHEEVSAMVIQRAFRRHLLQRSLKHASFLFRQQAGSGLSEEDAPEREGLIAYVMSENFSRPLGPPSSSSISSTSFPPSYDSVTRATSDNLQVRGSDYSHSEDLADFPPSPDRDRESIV
Method: as §1, §2, §3

| IC50 (Nav 1.7 [1]) | IC50 (Nav 1.7 [2]) | SMILES | IC50 (Nav 1.5) | inhibition at 4.9 µM (Nav 1.7 [1]) |
| --- | --- | --- | --- | --- |
| 1750 nM | 158 nM | O=S(=O)(Nc1nccs1)c1ccc2c(c1)OCCN2c1cccc2ccncc12 [Example 68, 4-(Isoquinolin-8-Yl)-N-(Thiazol-2-Yl)-3,4-Dihydro-2H-Benzo[B][1,4]Oxazine-7-Sulfonamide 2,2,2-Trifluoroacetate] | 4830 nM |  |
| 21700 nM | 914 nM | COc1cc(C)c(N2CCOc3cc(S(=O)(=O)Nc4nccs4)ccc32)cn1 [Example 137, 4-(6-Methoxy-4-methylpyridin-3-yl)-N-(thiazol-2-yl)-3,4-dihydro-2H-benzo[b][1,4]oxazine-7-sulfonamide] | > 10000 nM |  |
| 229 nM | 5.5 nM | O=S(=O)(Nc1nccs1)c1ccc2c(c1)OCCN2c1ccc(C(F)(F)F)cc1CCO [Example 211, 4-(2-(2-Hydroxyethyl)-4-(Trifluoromethyl)Phenyl)-N-(Thiazol-2-Yl)-3,4-Dihydro-2H-Benzo[B][1,4]Oxazine-7-Sulfonamide] | 471 nM |  |
| 315 nM | 117 nM | CN1CCN(c2cc(C(F)(F)F)ccc2N2CCOc3cc(S(=O)(=O)Nc4nccs4)ccc32)CC1 [Example 50, 4-(2-(4-Methylpiperazin-1-Yl)-4-(Trifluoromethyl)Phenyl)-N-(Thiazol-2-Yl)-3,4-Dihydro-2H-Benzo[B][1,4]Oxazine-7-Sulfonamide 2,2,2-Trifluoroacetate] | 957 nM |  |
| 102 nM | 10.5 nM | O=S(=O)(Nc1ncns1)c1ccc2c(c1)OCCN2c1ccc(C(F)(F)F)cc1-c1ccncc1 [Example 26, 4-(2-(Pyridin-4-Yl)-4-(Trifluoromethyl)Phenyl)-N-(1,2,4-Thiadiazol-5-Yl)-3,4-Dihydro-2H-Benzo[B][1,4]Oxazine-7-Sulfonamide] | 306 nM |  |
| 1340 nM | 451 nM | Cc1cc(OC(F)(F)F)ccc1N1CCOc2cc(S(=O)(=O)Nc3nccs3)ccc21 [Example 140, 4-(2-Methyl-4-(trifluoromethoxy)phenyl)-N-(thiazol-2-yl)-3,4-dihydro-2H-benzo[b][1,4]oxazine-7-sulfonamide] | 6600 nM |  |
| 1320 nM | 475 nM | O=S(=O)(Nc1nccs1)c1ccc2c(c1)OCCN2c1ccc2c(c1)OC(F)(F)O2 [Example 127, 4-(2,2-Difluorobenzo[d][1,3]dioxol-5-yl)-N-(thiazol-2-yl)-3,4-dihydro-2H-benzo[b][1,4]oxazine-7-sulfonamide] | > 10000 nM |  |
| 1370 nM | 163 nM | Cc1ccc(C#N)c(N2CCOc3cc(S(=O)(=O)Nc4nccs4)ccc32)c1 [Example 194, 4-(2-Cyano-5-Methylphenyl)-N-(Thiazol-2-Yl)-3,4-Dihydro-2H-Benzo[B][1,4]Oxazine-7-Sulfonamide] | 3590 nM |  |
| 135 nM | 6.2 nM | O=S(=O)(Nc1ccncn1)c1ccc2c(c1)OCCN2c1ccc(C(F)(F)F)cc1C1=CCNCC1 [Example 45, N-(Pyrimidin-4-Yl)-4-(2-(1,2,3,6-Tetrahydropyridin-4-Yl)-4-(Trifluoromethyl)Phenyl)-3,4-Dihydro-2H-Benzo[B][1,4]Oxazine-7-Sulfonamide 2,2,2-Trifluoroacetate] | 1200 nM |  |
| 303 nM | 45.5 nM | COc1cc(C#N)ccc1N1C[C@@H](C)Oc2cc(S(=O)(=O)Nc3nccs3)ccc21 (single isomer, unassigned) [Example 108] | > 10000 nM |  |
| 822 nM | 211 nM | N#CCc1cccc(N2CCOc3cc(S(=O)(=O)Nc4nccs4)ccc32)c1 [Example 174, 4-(3-(Cyanomethyl)Phenyl)-N-(Thiazol-2-Yl)-3,4-Dihydro-2H-Benzo[B][1,4]Oxazine-7-Sulfonamide 2,2,2-Trifluoroacetate] | 2010 nM |  |
| 17100 nM | 1340 nM | Cc1cc(N2CCOc3cc(S(=O)(=O)Nc4nccs4)ccc32)c(C)cn1 [Example 134, 4-(2,5-Dimethylpyridin-4-yl)-N-(thiazol-2-yl)-3,4-dihydro-2H-benzo[b][1,4]oxazine-7-sulfonamide] | > 10000 nM |  |
| 2690 nM | 160 nM | Cc1cc(C#N)cc(N2CCOc3cc(S(=O)(=O)Nc4nccs4)ccc32)c1 [Example 124, 4-(3-Cyano-5-methylphenyl)-N-(thiazol-2-yl)-3,4-dihydro-2H-benzo[b][1,4]oxazine-7-sulfonamide] | 2330 nM |  |
| 4270 nM | 834 nM | O=S(=O)(Nc1ncco1)c1ccc2c(c1)OCCN2c1ccc(C(F)(F)F)cc1Cl [Example 24, 4-(2-Chloro-4-(Trifluoromethyl)Phenyl)-N-(Oxazol-2-Yl)-3,4-Dihydro-2H-Benzo[B][1,4]Oxazine-7-Sulfonamide] | > 10000 nM |  |
| 1070 nM | 418 nM | [N-]=[N+]=Nc1ccc(N2CCOc3cc(S(=O)(=O)Nc4nccs4)ccc32)c(Br)c1 [Example 64, 4-(4-Azido-2-Bromophenyl)-N-(Thiazol-2-Yl)-3,4-Dihydro-2H-Benzo[B][1,4]Oxazine-7-Sulfonamide 2,2,2-Trifluoroacetate] | > 10000 nM |  |
| 1540 nM | 121 nM | Cn1nccc1-c1cc(C(F)(F)F)ccc1N1CCOc2cc(S(=O)(=O)Nc3nccs3)ccc21 [Example 42, 4-(2-(1-Methyl-1H-Pyrazol-5-Yl)-4-(Trifluoromethyl)Phenyl)-N-(Thiazol-2-Yl)-3,4-Dihydro-2H-Benzo[B][1,4]Oxazine-7-Sulfonamide] | > 10000 nM |  |
| 3630 nM | 367 nM | CC[C@H]1CN(c2ccc(C(F)(F)F)cc2C#N)c2ccc(S(=O)(=O)Nc3nccs3)cc2O1 (single isomer, unassigned) [Example 101] | 8500 nM |  |
| 14200 nM | 1240 nM | O=S(=O)(Nc1nccs1)c1ccc2c(c1)OCCN2c1ccc(C(F)(F)F)c(Cl)c1 [Example 126, 4-(3-Chloro-4-(trifluoromethyl)phenyl)-N-(thiazol-2-yl)-3,4-dihydro-2H-benzo[b][1,4]oxazine-7-sulfonamide] | > 10000 nM |  |
|  | 1700 nM | Cc1cc(F)cnc1N1CCOc2cc(S(=O)(=O)Nc3nccs3)ccc21 [Example 110, 4-(5-Fluoro-3-methylpyridin-2-yl)-N-(thiazol-2-yl)-3,4-dihydro-2H-benzo[b][1,4]oxazine-7-sulfonamide] | > 10000 nM | 39.2% |
| 149 nM | 8.5 nM | C[C@H]1CN(c2ccc(C(F)(F)F)cc2C#N)c2ccc(S(=O)(=O)Nc3nccs3)cc2O1 (single isomer, unassigned) [Example 94] | 724 nM |  |
| 23300 nM | 1310 nM | COc1cncc(N2CCOc3cc(S(=O)(=O)Nc4nccs4)ccc32)c1 [Example 131, 4-(5-Methoxypyridin-3-yl)-N-(thiazol-2-yl)-3,4-dihydro-2H-benzo[b][1,4]oxazine-7-sulfonamide] | > 10000 nM |  |
| 162 nM | 15.8 nM | O=S(=O)(Nc1ncns1)c1ccc2c(c1)OCCN2c1ccc(C(F)(F)F)cc1-c1cccnc1 [Example 21, 4-(2-(Pyridin-3-Yl)-4-(Trifluoromethyl)Phenyl)-N-(1,2,4-Thiadiazol-5-Yl)-3,4-Dihydro-2H-Benzo[B][1,4]Oxazine-7-Sulfonamide] | 1330 nM |  |

| SMILES | IC50 (Nav 1.7 [1]) | IC50 (Nav 1.7 [2]) | IC50 (Nav 1.5) | inhibition at 4.9 µM (Nav 1.7 [1]) |
| --- | --- | --- | --- | --- |
| N#Cc1cc(C(F)(F)F)ccc1N1CCOc2cc(S(=O)(=O)Nc3nccs3)c(F)cc21 [Example 215, 4-(2-Cyano-4-(Trifluoromethyl)Phenyl)-6-Fluoro-N-(Thiazol-2-Yl)-3,4-Dihydro-2H-Benzo[B][1,4]Oxazine-7-Sulfonamide] | 183 nM | 9.86 nM | 203 nM |  |
| NCc1nsc(NS(=O)(=O)c2ccc3c(c2)OCCN3c2ccc(C(F)(F)F)cc2Cl)n1 [Example 8, N-(3-(Aminomethyl)-1,2,4-Thiadiazol-5-Yl)-4-(2-Chloro-4-(Trifluoromethyl)Phenyl)-3,4-Dihydro-2H-Benzo[B][1,4]Oxazine-7-Sulfonamide 2,2,2-Trifluoroacetate] | 16000 nM | 7580 nM | > 10000 nM |  |
| O=S(=O)(Nc1nccs1)c1ccc2c(c1)OCCN2c1ccc2ncccc2c1 [Example 66, 4-(Quinolin-6-Yl)-N-(Thiazol-2-Yl)-3,4-Dihydro-2H-Benzo[B][1,4]Oxazine-7-Sulfonamide 2,2,2-Trifluoroacetate] |  | 3730 nM | > 10000 nM | 22.8% |
| O=S(=O)(Nc1nccs1)c1ccc2c(c1)OCCN2Cc1ccccc1 [Example 220, 4-Benzyl-N-(Thiazol-2-Yl)-3,4-Dihydro-2H-Benzo[B][1,4]Oxazine-7-Sulfonamide] | 17200 nM | 864 nM | > 10000 nM |  |
| O=S(=O)(Nc1ncns1)c1ccc2c(c1)OCCN2c1cccc(OC(F)(F)F)c1 [Example 35, N-(1,2,4-Thiadiazol-5-Yl)-4-(3-(Trifluoromethoxy)Phenyl)-3,4-Dihydro-2H-Benzo[B][1,4]Oxazine-7-Sulfonamide] | 138 nM | 43.5 nM | > 10000 nM |  |
